How the values were obtained:
[1] = target: T1, Ubiquitin carboxyl-terminal hydrolase 30 (Homo sapiens, UniProt Q70CQ3); experiment: Inhibition of human USP30 catalytic domain (57 to 517 residues) using ubiquitin-rhodamine 110 as substrate preincubated for 30 min followed by substrate addition and measured after 2 hrs by fluorescence intensity kinetic assay
T1 sequence (Q70CQ3 whole entry): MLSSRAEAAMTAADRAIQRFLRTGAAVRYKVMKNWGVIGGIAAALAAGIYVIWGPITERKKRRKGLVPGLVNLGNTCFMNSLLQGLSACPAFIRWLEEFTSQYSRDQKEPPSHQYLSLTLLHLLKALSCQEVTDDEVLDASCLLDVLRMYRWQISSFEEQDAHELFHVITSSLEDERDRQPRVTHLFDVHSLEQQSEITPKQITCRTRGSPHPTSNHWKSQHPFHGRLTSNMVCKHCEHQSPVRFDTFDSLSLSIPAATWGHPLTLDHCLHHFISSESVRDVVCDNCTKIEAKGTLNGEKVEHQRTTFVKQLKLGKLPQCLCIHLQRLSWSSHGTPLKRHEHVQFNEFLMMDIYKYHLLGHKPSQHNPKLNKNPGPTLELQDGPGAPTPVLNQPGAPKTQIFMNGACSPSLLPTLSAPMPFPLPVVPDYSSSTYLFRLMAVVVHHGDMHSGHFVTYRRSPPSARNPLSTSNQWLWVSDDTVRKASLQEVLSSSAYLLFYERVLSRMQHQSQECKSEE

[2] = target: T1, Ubiquitin carboxyl-terminal hydrolase 30; experiment: Inhibition of untagged human USP30 catalytic domain (57 to 517 residues) expressed in Escherichia coli using TAMRA labeled ubiquitin peptide as substrate preincubated for 30 min followed by substrate addition and measured after 2 hrs by fluorescence polarization assay

IC50 [1] [µM]	SMILES	IC50 [2] [µM]
1 to 10	N#CN1C[C@H]2CCN(C(=O)N3CCc4ccccc43)[C@H]2C1	
	N#CN1C[C@H]2CCN(C(=O)Nc3cc(Cl)ccc3F)[C@H]2C1	0.1 to 1
0.1 to 1	N#CN1CC[C@@H](NC(=O)c2ccc(N3CCOCC3)cc2)C1	
0.1 to 1	COc1cc(-c2cc(C(=O)N(C)[C@@H]3CCN(C#N)C3)on2)ccn1	
	N#Cc1ccc(NC(=O)N2CC[C@@H]3CN(C#N)C[C@@H]32)c(F)c1	0.1 to 1

Source: ChEMBL document CHEMBL4418285, “1-cyano-pyrrolidine compounds as usp30 inhibitors” (2018)
